The values below are quoted from earlier work in US8921533B2, “Glycosylated valproic acid analogs and uses thereof” (Chromatin Technologies, priority 2011, dated 2014).

In this series the test system is sensitised guinea pig tracheal rings. The note with it: also contraction induced by histamine, 5-hydroxytryptamine and carbachol.

Like-named read-outs stand apart in the source and are kept apart here.

Take `CCCC(=O)[O-].[Na+]` [sodium butyrate]: the “inhibition of antigen-induced contraction of tracheal rings” value (1 mM) was “weak inhibitors”. Turning to `CCCC(CCC)C(=O)[O-].[Na+]` [sodium valproate], the “inhibition of antigen-induced contraction of tracheal rings” value (100 microM) was “weak inhibitors”.
